Structures are written as SMILES. Converted amounts (≈) assume the structure as drawn.

The conditions of the series: buffer; pH 7.4; 200.0 µM.
The molecule `Cc1ccc(SCc2noc(-c3c(C)noc3C)n2)cc1` showed a solubility (kinetic) of 2.1 µg/mL (≈ 6.97 µM).
Molecule `O=C(CN1CCOCC1)NNC(=S)Nc1ccc(Cl)cc1` gave a kinetic solubility of over 49.3 µg/mL.
In the case of `CCOc1ccc(N2C(=O)CC(C(C)c3ccccc3)C2=O)cc1` (configuration not stated) it was 5.7 µg/mL (≈ 17.6 µM).
In the case of `COc1ccc2c(CC(=O)OCC(=O)NC(N)=O)coc2c1` it was 18.1 µg/mL (≈ 59.1 µM); in that of `COc1cc(OC)c(C(=O)NCc2cccnc2)cc1OC`, 42.9 µg/mL (≈ 142 µM).
`CC(C)(C)c1ccc(N2C(=O)CC(C/C=C/c3ccccc3)C2=O)cc1` (configuration not stated): the kinetic solubility was under 0.7 µg/mL.
The figure for `CCc1nc2ccc(C(=O)Nc3ccc4c(c3)OCO4)cc2nc1CC` is 1.6 µg/mL (≈ 4.58 µM); for `CCN(CC)C(=O)c1cccc2c1-c1ccccc1C2=O` it is 41.5 µg/mL (≈ 149 µM).
In the case of `Cc1ccc(CNC(=O)Nc2ccc(Cl)cc2)cc1` it was under 0.3 µg/mL; in that of `Cc1cccc(NC(=O)CCN2CCN(C)CC2)c1.Cl`, over 44.7 µg/mL; in that of `COc1cc([N+](=O)[O-])ccc1NC(=O)NCCCN1CCCC1=O`, over 50.5 µg/mL.
The figure for `Cc1nccn1CC(=O)N/N=C/c1ccccc1O` is over 38.7 µg/mL; for `CC1CCCCC1NC(=O)COc1cccnc1[N+](=O)[O-]` (configuration not stated) it is over 44 µg/mL.
As for `CN(Cc1ccccn1)Cc1nc(COc2ccccc2)no1`, the solubility (kinetic) was found to be 45.7 µg/mL (≈ 147 µM).
As to `CCOc1cc(C(=O)NC)cc(Br)c1OC`, the solubility (kinetic) was over 43.2 µg/mL.
The figure for `CC(=O)c1ccc(NC(=O)[C@@]2(CC(=O)O)CC(/C=C/c3ccccc3)=NO2)cc1` is over 58.9 µg/mL.
`COC(=O)CCSC(=S)N1CCOCC1` returned a kinetic solubility of over 37.4 µg/mL.
In turn, `N#CCc1cc2ccc3cccc4ccc(c1)c2c34` had a kinetic solubility of under 0.5 µg/mL.
In the case of `Cn1c(C(=O)Nc2ccc(Cl)cc2)cc2cc(Cl)ccc21` it was under 0.3 µg/mL.
The figure for `CC1CCCCN1Cc1ccc(Cl)nc1` (configuration not stated) is 15.5 µg/mL (≈ 69 µM); for `Cc1ccc(C(C)C)c(OCCCN2CCc3ccccc3C2)c1.Cl` it is 3.1 µg/mL.
In turn, `Cc1ccc(S(=O)(=O)N2CCCCC2)cc1NC(=O)COc1ccccc1` came in with a solubility (kinetic) of 4.3 µg/mL (≈ 11.1 µM).
The figure for `NC(=O)c1ccc(NC(=O)COC(=O)CCC2CCCCC2)cc1` is 9.1 µg/mL (≈ 27.4 µM); for `O=C(O)C1CC(c2ccccc2)=Nc2ccccc2S1` (configuration not stated) it is 9.8 µg/mL (≈ 34.6 µM); for `Clc1ccc2oc(SCc3cccnc3)nc2c1` it is 3.5 µg/mL (≈ 12.6 µM).
Molecule `N#Cc1cc(-c2ccccc2)nc(N2CCNCC2)n1` displayed a kinetic solubility of over 39.8 µg/mL.
Regarding `O=[N+]([O-])C1=CC=C2C(=NC3(CCCCC3)N2O)C1=NC1CCCCC1`, the solubility (kinetic) was determined as 24.6 µg/mL (≈ 71.4 µM).
The figure for `CC(C)(C)/C(COc1ccccc1[N+](=O)[O-])=N/O` is 20.6 µg/mL (≈ 81.7 µM); for `S=C(NCc1cccs1)Nc1cccc2ccccc12` it is 30.5 µg/mL (≈ 102 µM); for `CC(=O)Nc1ccc(S(=O)(=O)Nc2ccc3c(c2)CCC3)cc1` it is 4.2 µg/mL (≈ 12.7 µM).
Take `OCCN(CC#CCn1c2ccccc2c2ccccc21)CCO`: the solubility (kinetic) is over 48.4 µg/mL.
In the case of `O=C(CN1CCOCC1)NNc1c2ccccc2nc2ccccc12` it was over 50.5 µg/mL; in that of `Cc1cc(F)ccc1NC(=O)c1cnccn1`, 29.7 µg/mL (≈ 128 µM); in that of `COc1ccc(OC)c(NC(=O)NCCc2cccc(Cl)c2)c1`, 1.9 µg/mL (≈ 5.67 µM).
In the case of `O=C(CN1CCCCC1)Nc1nc(-c2ccc(Cl)cc2)cs1` it was under 0.2 µg/mL; in that of `COc1ccc(N(C)S(=O)(=O)c2cccc(C(=O)OCC(=O)N(C)c3ccccc3)c2)cc1`, 7.9 µg/mL (≈ 16.9 µM).
`CC(NC(=O)CSc1ncccn1)c1ccc2c(c1)OCO2` (configuration not stated) had a kinetic solubility of over 47.6 µg/mL.
`O=C(COC(=O)c1cc(-c2ccccc2)nc2ccccc12)NC1CC1` displayed a solubility (kinetic) of 6.6 µg/mL (≈ 19.1 µM).
For `CC(OC(=O)c1ccccc1)C(=O)NCc1ccco1` (configuration not stated), the solubility (kinetic) was over 41 µg/mL.
In the case of `Cc1cc(C)c(NC(=S)N(C)C)c(C)c1` it was over 33.4 µg/mL; in that of `CCCNC(=O)C12CCC(C)(c3nc4cc(C)c(C)cc4nc31)C2(C)C` (configuration not stated), 32.2 µg/mL (≈ 91.6 µM).
In the case of `Cc1ccc(NC(=O)C(C)SCc2nc3sc4c(c3c(=O)[nH]2)CCCC4)nc1` (configuration not stated) it was 29.4 µg/mL (≈ 70.9 µM).
With `O=C(NC(=S)Nc1cccc([N+](=O)[O-])c1)c1ccccc1`, the kinetic solubility amounted to 1.2 µg/mL (≈ 3.98 µM).
`Cc1ccsc1C(=O)N1CCN(c2ncccn2)CC1` showed a solubility (kinetic) of over 43.3 µg/mL.
The figure for `O=C(Nc1nccs1)C1(c2ccc(Cl)cc2)CC1` is 14.2 µg/mL (≈ 50.9 µM).
The figure for `CC(C)c1ccccc1OCCCN1CCCC1.O=C(O)C(=O)O` is 47 µg/mL; for `COc1ccc(CNC(=O)c2cc3ccccc3o2)cc1OC` it is over 46.7 µg/mL.
The figure for `NC(=O)c1ccsc1NC(=O)CSc1nncs1` is over 45.1 µg/mL; for `COc1ccc(OCC(=O)Nc2ccc3c(c2)n(C)c(=O)n3C)cc1` it is 48.2 µg/mL (≈ 141 µM); for `COc1cc(/C=C/C(=O)OC(C)C(=O)Nc2ccc(Cl)cn2)ccc1OC(F)F` (configuration not stated) it is 2.8 µg/mL (≈ 6.56 µM).
`COc1ccccc1NS(=O)(=O)c1cc(NC(=O)c2cccnc2)ccc1N1CCCCC1`: the solubility (kinetic) came out at 1.3 µg/mL (≈ 2.79 µM).
In the case of `COc1ccc(C=O)cc1Cn1ccnc1.Cl` it was over 37.9 µg/mL.

What is called kinetic solubility is the concentration staying in solution when a stock, usually in DMSO, is diluted into the medium.
